For 20 compounds, T/C results are on record in PubChem BioAssay AID200 (DTP/NCI, 2004).

Where “and” joins values, the source holds several entries; their conditions need not be identical. Identical values can stand only once. Toxic doses and inconclusive results are not listed. Where a SMILES comes first, the peptide text is derived from it.

The test system of this experiment is B6C3F1 mice, B16 melanoma ip, median survival T/C. Description: NCI In Vivo Anticancer Drug Screen. Data for tumor model B16 Melanoma (intraperitoneal) in B6C3F1 mice. Particulars: endpoint: median survival time, schedule: Q01DX009 (ip), higher = longer survival. Summed up: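 Antitumor effect was judged in mice with transplanted tumors by dividing the treated group's survival measure by that of vehicle controls.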

Setting [1] is: dose: 12.5 mg/kg/injection, vehicle: saline.
Where [2] appears, read: dose: 25.0 mg/kg/injection, vehicle: saline.
Setting [3] is: dose: 50.0 mg/kg/injection, vehicle: saline.
Where [4] appears, read: dose: 6.25 mg/kg/injection, vehicle: saline with Tween-80.
[5] abbreviates: dose: 12.5 mg/kg/injection, vehicle: saline with Tween-80.
The mark [6] stands for this setting: dose: 25.0 mg/kg/injection, vehicle: saline with Tween-80.
The mark [7] stands for this setting: dose: 50.0 mg/kg/injection, vehicle: saline with Tween-80.
[8] abbreviates: dose: 200.0 mg/kg/injection, vehicle: Klucel (hydroxypropylcellulose) (HPC).
Where [9] appears, read: dose: 100.0 mg/kg/injection, vehicle: saline with Tween-80.
The mark [10] stands for this setting: dose: 200.0 mg/kg/injection, vehicle: saline with Tween-80.
Where [11] appears, read: dose: 100.0 mg/kg/injection, vehicle: saline.
Setting [12] is: dose: 200.0 mg/kg/injection, vehicle: saline.
Where [13] appears, read: dose: 400.0 mg/kg/injection, vehicle: saline.
The mark [14] stands for this setting: dose: 100.0 mg/kg/injection, vehicle: Klucel (hydroxypropylcellulose) (HPC).

On to `O=C1C=C(Nc2ccc(O)cc2)c2ccccc2C1=O`, for which the T/C is 102 % of control (dose: 5.0 mg/kg/injection, vehicle: saline); 98 % of control (dose: 10.0 mg/kg/injection, vehicle: saline); 93 % of control (dose: 20.0 mg/kg/injection, vehicle: saline).

On to `O=C1CCCCCC2=NC12` (centres undefined), for which the T/C (dose: 6.25 mg/kg/injection, vehicle: Klucel (hydroxypropylcellulose) (HPC)) is 95 % of control; the T/C (dose: 12.5 mg/kg/injection, vehicle: Klucel (hydroxypropylcellulose) (HPC)) is 91 % of control; the T/C (dose: 25.0 mg/kg/injection, vehicle: Klucel (hydroxypropylcellulose) (HPC)) was 87 % of control; the T/C (dose: 50.0 mg/kg/injection, vehicle: Klucel (hydroxypropylcellulose) (HPC)) was 98 % of control.

In the case of `COc1ccc2c(c1)/C(=C/CCN(C)C)c1ccccc1S2`, the T/C is 101 % of control under setting [1], 101 % of control under setting [2] and 101 % of control under setting [3].

Take `O=C1N[C@H]2[C@H](O)[C@H](O)[C@@H](O)[C@H](O)[C@@H]2c2cc3c(c(O)c21)OCO3`: the T/C reads like this: (dose: 1.5 mg/kg/injection, vehicle: saline + alcohol) 100 % of control; (dose: 1.56 mg/kg/injection, vehicle: saline + alcohol) 108 % of control; (dose: 3.0 mg/kg/injection, vehicle: saline + alcohol) 103 % of control; (dose: 6.0 mg/kg/injection, vehicle: saline + alcohol) 114 % of control; (dose: 6.25 mg/kg/injection, vehicle: saline + alcohol) 110 % of control.

Regarding `CCC[CH2][Sn]1([CH2]CCC)[O]C2C(CO)OC(n3ccc(N)nc3=O)C2[O]1` (centres undefined), the T/C runs as follows: (dose: 0.05 mg/kg/injection, vehicle: Klucel (hydroxypropylcellulose) (HPC)) 94 % of control; (dose: 0.1 mg/kg/injection, vehicle: Klucel (hydroxypropylcellulose) (HPC)) 90 % of control; (dose: 0.2 mg/kg/injection, vehicle: Klucel (hydroxypropylcellulose) (HPC)) 101 % of control; (dose: 0.4 mg/kg/injection, vehicle: Klucel (hydroxypropylcellulose) (HPC)) 95 % of control.

As for `O=S1(=O)C=C(c2ccccc2)C(c2ccccc2)=C1`, the T/C was 92 % of control and 98 % of control (dose: 3.12 mg/kg/injection, vehicle: saline with Tween-80); 95 % of control under setting [4]; 113 % of control and 94 % of control under setting [5]; 106 % of control under setting [6]; 119 % of control under setting [7].

Regarding `COC1/C=C/C=C(/C)Cc2cc(O)c(Cl)c(c2)N(C)C(=O)CC(OC(=O)C(C)C)C2(C)OC2C(C)C2CC1(O)NC(=O)O2` (centres undefined), the T/C by setting is: (dose: 0.25 mg/kg/injection, vehicle: saline + alcohol) 155 % of control; (dose: 0.5 mg/kg/injection, vehicle: saline + alcohol) 150 % of control; (dose: 25.0 micrograms/kg/injection, vehicle: saline + alcohol) 120 % of control; (dose: 400.0 micrograms/kg/injection, vehicle: saline + alcohol) 151 % of control.

In the case of `CCCCC(NC(=O)OCc1ccccc1)C(=O)NC(Cc1c[nH]c2ccccc12)C(=O)O` (centres undefined), the T/C under setting [8] was 103 % of control.

With `CN(C)C1C(=O)C(C(=O)NP(=O)(NCCCO)N(CCCl)CCCl)=C(O)C2(O)C(=O)C3=C(O)c4c(O)cccc4C(C)(O)C3CC12` (centres undefined), the T/C runs as follows: (dose: 12.0 mg/kg/injection, vehicle: saline with Tween-80) 105 % of control; under setting [6], 103 % of control and 107 % of control; under setting [7], 118 % of control and 102 % of control; under setting [9], 121 % of control; under setting [10], 195 % of control and 219 % of control.

In the case of `NC(N)=O`, the T/C by setting is: under setting [3], 99 % of control; under setting [11], 100 % of control; under setting [12], 106 % of control; under setting [13], 95 % of control.

As for `CCCCC(NC(=O)CNC(=O)OCc1ccccc1)C(=O)O` (centres undefined), the T/C runs as follows: under setting [14], 92 % of control; under setting [8], 96 % of control; (dose: 400.0 mg/kg/injection, vehicle: Klucel (hydroxypropylcellulose) (HPC)) 92 % of control.

On to `COc1ccc(OC)c(/C=C/c2ccnc3ccccc23)c1`, for which the T/C (dose: 50.0 mg/kg/injection, vehicle: saline sonified) was 95 % of control; the T/C (dose: 100.0 mg/kg/injection, vehicle: saline sonified) was 107 % of control; the T/C (dose: 200.0 mg/kg/injection, vehicle: saline sonified) is 117 % of control.

As for `CC(=Nc1ccccc1)C1=C(O)C(Cc2ccccc2)NC1=O` (centres undefined), the T/C runs as follows: (dose: 3.13 mg/kg/injection, vehicle: saline with Tween-80) 113 % of control; under setting [4], 121 % of control; under setting [5], 115 % of control and 103 % of control; under setting [6], 119 % of control and 103 % of control; under setting [7], 113 % of control.

In the case of `CCCC(NC(=O)CNC(=O)OCc1ccccc1)C(=O)O` (centres undefined) (HELM PEPTIDE1{[O=C(OCc1ccccc1)[*:2]].G.[CCCC(N[*:1])C(=O)O]}$$$$V2.0), the T/C is 104 % of control under setting [14] and 92 % of control under setting [8].

Regarding `CCOC(=O)[C@]1(Br)CC[C@@]1(Br)C(=O)OCC`, the T/C by setting is: under setting [5], 108 % of control and 104 % of control; under setting [6], 110 % of control and 105 % of control; under setting [7], 98 % of control and 106 % of control; under setting [9], 100 % of control and 107 % of control; under setting [10], 110 % of control and 105 % of control.

`CCC1OC(OC)C=CC1=O` (centres undefined): the T/C was 106 % of control under setting [1], 108 % of control under setting [2] and 104 % of control under setting [3].

As to `CC(C)(C)OC(=O)N1CCCC1C(=O)N1CCCC1C(=O)Oc1ccccc1` (centres undefined), the T/C was 103 % of control under setting [6]; 93 % of control under setting [7]; 100 % of control under setting [9]; 118 % of control (dose: 100.0 mg/kg/injection, vehicle: suspension in saline); 94 % of control under setting [10]; 115 % of control (dose: 200.0 mg/kg/injection, vehicle: suspension in saline). Also, the T/C (dose: 400.0 mg/kg/injection, vehicle: suspension in saline) was 104 % of control.

Turning to `CC(=O)N(C)C`, the T/C is 89 % of control (dose: 122.5 mg/kg/injection, vehicle: saline); 95 % of control (dose: 225.0 mg/kg/injection, vehicle: saline); 95 % of control (dose: 450.0 mg/kg/injection, vehicle: saline); 105 % of control (dose: 900.0 mg/kg/injection, vehicle: saline); 114 % of control (dose: 1800.0 mg/kg/injection, vehicle: saline).

With `CCCC(NC(=O)OCc1ccccc1)C(=O)O` (centres undefined), the T/C was 92 % of control under setting [9] and 90 % of control under setting [10].

For the compound `CCCCCC[C@@H](O)C/C=C\CCCCCCCC(=O)OCCO`, the T/C is 101 % of control under setting [2]; 110 % of control under setting [3]; 102 % of control (dose: 75.0 mg/kg/injection, vehicle: saline); 122 % of control under setting [11]; 97 % of control (dose: 150.0 mg/kg/injection, vehicle: saline); 101 % of control under setting [12]. Further, the T/C by setting is: (dose: 300.0 mg/kg/injection, vehicle: saline) 100 % of control; under setting [13], 103 % of control; (dose: 600.0 mg/kg/injection, vehicle: saline) 95 % of control; (dose: 800.0 mg/kg/injection, vehicle: saline) 96 % of control; (dose: 1200.0 mg/kg/injection, vehicle: saline) 96 % of control.
